Holding throughout (assay type): cell-based
The target of one assay is T1, CDK2 (Homo sapiens, UniProt P24941).
T1 construct: endogenous in cells; host or cells: OVCAR-8
The assay can be described thus: CDK2 degradation by immunoblotting in OVCAR-8 cells. Particulars: 24 h. How it is done:
(§1) CDK2 and CDK1 Degradation by Immunoblotting
(§2) Ovarian cancer cell line OVCAR-8 were cultured in 12-well plates in complete growth medium. A serial dilution of each compound was added to individual wells from a 2× stock solution, and cells were cultured for 24 hours. Cells were collected by centrifugation, and cell pellets lysed with addition of chilled RIPA buffer supplemented with protease/phosphatase inhibitors followed by incubation for 20 minutes on ice. Lysates were clarified by centrifugation and 5×SDS loading buffer was added to the supernatant followed by heating to 100° C. for 10 minutes. An aliquot of the samples were separated by SDS-PAGE and transferred to a nitrocellulose membrane. Immunoblotting was performed according to standard procedures using anti-CDK2 primary antibody (Abcam ab32147) at 1:1000 dilution and IRDye 800CW goat anti-Rabbit secondary antibody (LICOR) and imaged using a LICOR Odyssey instrument. Blots were stained with anti-beta-Actin primary antibody (Cell Signaling Technology mAb #4970) for normalization. The normalized CDK2/Actin values were calculated as a percent of DMSO treated cells and plotted to determine the concentration at which 50% of CDK2 signal is decreased (DC50). The determination of CDK1 degradation was determined similarly using anti-CDK1 primary antibody (Abcam ab131450).
A general note: Immunoblotting shows a protein as a band on a membrane.

The target of a further assay is T2, CCNE1 (Homo sapiens, UniProt P24864+P24941).
T2 construct: endogenous in cells; host or cells: MKN-1
The assay can be described thus: CCNE1 degradation in MKN-1 cells by immunoblotting. Particulars: 24 h, by WB, read-out: Cyclin E1 DC50, (MKN-1 by WB). The procedure: CCNE1 Degradation in MKN-1 Cells
Gastric cancer cell line MKN-1 were cultured in 6-well plates in complete growth medium. A serial dilution of each compound was added to individual wells from a 2× stock solution, and cells were cultured for 24 hours. Following 24-hr incubation, cells were lysed with addition of chilled RIPA buffer supplemented with protease/phosphatase inhibitors followed by incubation for 20 minutes on ice. Lysates were clarified by centrifugation and 5×SDS loading buffer was added to the supernatant followed by heating to 100° C. for 10 minutes. An aliquot of the samples were separated by SDS-PAGE and transferred to a nitrocellulose membrane. Immunoblotting was performed according to standard procedures using anti-CCNE1 primary antibody (Abcam #ab33911) at 1:1000 dilution and IRDye 800CW goat anti-Rabbit secondary antibody (LICOR) and imaged using a LICOR Odyssey instrument. Blots were stained with anti-beta-Actin primary antibody (Cell Signaling Technology mAb 43700) for normalization. The normalized CCNE1/Actin values were calculated as a percent of DMSO treated cells and plotted to determine the concentration at which 50% of CCNE1 signal is decreased.

The target in the next assay is T3, CDK1 (Homo sapiens, UniProt P06493).
T3 construct: endogenous in cells; host or cells: OVCAR-8
T3 sequence (P06493 whole entry): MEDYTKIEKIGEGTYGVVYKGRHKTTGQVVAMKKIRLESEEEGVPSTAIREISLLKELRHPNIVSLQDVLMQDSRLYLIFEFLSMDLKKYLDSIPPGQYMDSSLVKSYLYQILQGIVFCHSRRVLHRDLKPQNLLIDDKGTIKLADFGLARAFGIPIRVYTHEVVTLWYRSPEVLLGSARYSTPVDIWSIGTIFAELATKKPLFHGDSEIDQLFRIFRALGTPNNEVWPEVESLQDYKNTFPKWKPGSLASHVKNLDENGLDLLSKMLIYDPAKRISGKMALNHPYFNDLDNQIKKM
The assay can be described thus: CDK1 degradation by immunoblotting in OVCAR-8 cells. Particulars: 24 h. The procedure:
as §1, §2

Drawing on US12097261B2, “CDK2 degraders and uses thereof” (Kymera Therapeutics, Inc., priority 2021, dated 2024), this text covers DC50 for one molecule.

What is called DC50 is the concentration giving 50% degradation.

As to `Cc1cc(S(=O)(=O)NCCO[C@H]2CC[C@H](CN3CCC(c4ccc5c(c4)n(C)c(=O)n5C4CCC(=O)NC4=O)CC3)CC2)ccc1Nc1ncc2cc(Cl)c(=O)n(C3CCCC3)c2n1` (stereo partly drawn) [I-108], the DC50 on CDK2 was less than 10 nM; on CCNE1, less than 10 nM; at CDK1, 100 to 1000 nM.
